Laboratory results as given in patent US9382208B1, “Negative allosteric modulators of metabotropic glutamate receptor 2” (Vanderbilt University, priority 2015, dated 2016).

Biological target: T1, rat mGlu2 (Rattus norvegicus, UniProt P31421)
T1 construct: expressed in transfected cells
Test: mGlu2 Ca2+ flux assay
Format: cell-based
Settings: for IC50: Gα15 HEK293 cells stably expressing rat mGlu2, glutamate EC80 addition, read-out: rat mGlu2 IC50; for remaining activity at 30 µM: amplitude of response in the presence of 30 μM test compound as percentage of maximal response to glutamate, read-out: rat mGlu2 Glu max (%)
Experimental: Gα15 HEK293 cells stably expressing rat mGlu2 were plated in black-walled, clear-bottomed, poly-D-lysine coated 384-well plates in 20 μL of assay medium (DMEM containing 10% dialyzed FBS, 20 mM HEPES, and 1 mM sodium pyruvate) at a density of 12K cells/well. The cells were grown overnight at 37° C. in the presence of 5% CO2. The next day, medium was removed and the cells incubated with 20 μL of 2.3 μM Fluo-4, AM prepared as a 2.3 mM stock in DMSO and mixed in a 1:1 ratio with 10% (w/v) pluronic acid F-127 and diluted in assay buffer (Hank's balanced salt solution, 20 mM HEPES, and 2.5 mM probenecid) for 45 minutes at 37° C. Dye was removed, 20 μL of assay buffer was added, and the plate was incubated for 5 minutes at room temperature.
Ca^2+ flux was measured using the Functional Drug Screening System (FDSS7000, Hamamatsu, Japan). After establishment of a fluorescence baseline for about 3 seconds, the compounds of the present invention were added to the cells, and the response in cells was measured. 2.3 minutes later an EC20 concentration of the mGlu2 receptor agonist glutamate was added to the cells, and the response of the cells was measured for 1.9 minutes; an EC80 concentration of agonist was added and readings taken for an additional 1.7 minutes. All test compounds were dissolved and diluted to a concentration of 10 mM in 100% DMSO. Compounds were then serially diluted 1:3 in DMSO into 10 point concentration response curves, transferred to daughter plates, and further diluted into assay buffer to a 2× stock. Calcium fluorescence measures were recorded as fold over basal fluorescence; raw data was then normalized to the maximal response to glutamate. Antagonism of the agonist response of the mGlu2 receptor in the present invention was observed as a decrease in response to nearly maximal concentrations of glutamate in the presence of compound compared to the response to glutamate in the absence of compound.
The raw data file containing all time points was used as the data source in the analysis template. This was saved by the FDSS as a tab-delimited text file. Data were normalized using a static ratio function (F/F0) for each measurement of the total 360 values per well divided by each well's initial value. Data were then reduced to peak amplitudes (Max−Initial Min) using a time range that starts approximately 3 seconds prior to the glutamate EC80 addition and continues for approximately 90 seconds. This is sufficient time to capture the peak amplitude of the cellular calcium response. Individual amplitudes were expressed as % ECMax by multiplying each amplitude by 100 and then dividing the product by the mean of the amplitudes derived from the glutamate ECMax-treated wells. IC50 values for test compounds were generated by fitting the normalized values versus the log of the test compound concentration (in mol/L) using a 4 parameter logistic equation where none of the parameters were fixed. Each of the three values collected at each concentration of test compound were weighted evenly.
For NAMs, potency (IC50) and maximum response (% Glu Max), i.e. the amplitude of response in the presence of 30 μM test compound as a percentage of the maximal response to glutamate, are reported. […] Compounds with no measurable activity are designated as “>30,000 nM” since the top concentration of compound tested in the assay is 30 μM.

T1 sequence (P31421 19-872): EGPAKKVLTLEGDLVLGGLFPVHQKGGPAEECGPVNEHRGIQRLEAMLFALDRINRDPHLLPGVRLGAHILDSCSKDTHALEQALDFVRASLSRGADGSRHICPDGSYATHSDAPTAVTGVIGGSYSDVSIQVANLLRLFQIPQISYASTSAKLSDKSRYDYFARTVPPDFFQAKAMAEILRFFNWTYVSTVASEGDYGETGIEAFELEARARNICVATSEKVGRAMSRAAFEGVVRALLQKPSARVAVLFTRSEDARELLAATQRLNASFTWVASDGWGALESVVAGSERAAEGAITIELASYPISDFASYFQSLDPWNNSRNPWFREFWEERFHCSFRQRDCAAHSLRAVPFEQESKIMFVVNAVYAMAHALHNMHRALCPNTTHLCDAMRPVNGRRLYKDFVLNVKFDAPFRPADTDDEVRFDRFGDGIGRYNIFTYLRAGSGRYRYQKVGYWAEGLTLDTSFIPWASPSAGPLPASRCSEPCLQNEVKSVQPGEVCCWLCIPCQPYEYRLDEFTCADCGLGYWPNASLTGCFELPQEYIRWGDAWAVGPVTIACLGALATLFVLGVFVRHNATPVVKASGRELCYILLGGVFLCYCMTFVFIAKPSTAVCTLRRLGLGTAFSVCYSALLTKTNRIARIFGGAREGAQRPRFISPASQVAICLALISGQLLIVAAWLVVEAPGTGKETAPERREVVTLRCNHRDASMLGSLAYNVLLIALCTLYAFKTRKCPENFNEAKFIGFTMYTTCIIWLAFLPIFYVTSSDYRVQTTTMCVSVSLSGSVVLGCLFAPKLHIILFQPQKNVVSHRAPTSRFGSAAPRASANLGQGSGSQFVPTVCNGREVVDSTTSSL

Compound	IC50 [nM]	remaining activity at 30 µM [%]
NC(=O)c1cn(-c2ccc(F)cc2)c2ccc(Oc3ccc(F)nc3)cc2c1=O [Compound 58, 1-(4-fluorophenyl)-6-((6-fluoropyridin-3-yl)oxy)-4-oxo-1,4-dihydroquinoline-3-carboxamide]	1360	1.18
N#CC1CCN(Cc2ccc3c(c2)c(=O)c(C(N)=O)cn3-c2ccc(F)cc2)CC1 [Compound 75, 6-((4-cyanopiperidin-1-yl)methyl)-1-(4-fluorophenyl)-4-oxo-1,4-dihydroquinoline-3-carboxamide]	735	1.02
Cc1ncc(COc2ccc3c(c2)c(=O)c(C(N)=O)cn3-c2ccc(F)cc2)cn1 [Compound 29, 1-(4-fluorophenyl)-6-((2-methylpyrimidin-5-yl)methoxy)-4-oxo-1,4-dihydroquinoline-3-carboxamide]	843	1.92
Cc1ccc(CCc2ccc3c(c2)c(=O)c(C(N)=O)cn3-c2ccc(F)cc2)cc1 [Compound 6, 1-(4-fluorophenyl)-6-(4-methylphenethyl)-4-oxo-1,4-dihydroquinoline-3-carboxamide]	> 10000	68.5
NC(=O)c1cn(-c2ccc(F)cc2)c2ccc(-c3cccnc3)cc2c1=O [Compound 60, 1-(4-fluorophenyl)-4-oxo-6-(pyridin-3-yl)-1,4-dihydroquinoline-3-carboxamide]	277	1.33
NC(=O)c1cn(-c2ccc(F)cc2)c2ccc(CN3CC4(C3)CC(F)(F)C4)cc2c1=O [Compound 65, 6-((6,6-difluoro-2-azaspiro[3.3]heptan-2-yl)methyl)-1-(4-fluorophenyl)-4-oxo-1,4-dihydroquinoline-3-carboxamide]	2020	1.93
NC(=O)c1cn(-c2ccc(F)cc2)c2ccc(N3Cc4cccnc4C3)cc2c1=O [Compound 43, 1-(4-fluorophenyl)-4-oxo-6-(5H-pyrrolo[3,4-b]pyridin-6(7H)-yl)-1,4-dihydroquinoline-3-carboxamide]	5040	1.85
NC(=O)c1cn(-c2ccc(F)cc2)c2ccc(OCc3cccnc3)cc2c1=O [Compound 44, 1-(4-fluorophenyl)-4-oxo-6-(pyridin-3-ylmethoxy)-1,4-dihydroquinoline-3-carboxamide]	1080	1.67
C[C@@H]1CN(Cc2ccc3c(c2)c(=O)c(C(N)=O)cn3-c2ccc(F)cc2)CCO1 [Compound 89, (R)-1-(4-fluorophenyl)-6-((2-methylmorpholino)methyl)-4-oxo-1,4-dihydroquinoline-3-carboxamide]	1150	1.08
NC(=O)c1cn(-c2ccc(F)cc2)c2ccc(OCc3ccncc3)cc2c1=O [Compound 25, 1-(4-fluorophenyl)-4-oxo-6-(pyridin-4-ylmethoxy)-1,4-dihydroquinoline-3-carboxamide]	1230	0.97
CC(=O)N1CCN(Cc2ccc3c(c2)c(=O)c(C(N)=O)cn3-c2ccc(F)cc2)CC1 [Compound 82, 6-((4-acetylpiperazin-1-yl)methyl)-1-(4-fluorophenyl)-4-oxo-1,4-dihydroquinoline-3-carboxamide]	3190	2.14
COC1CCN(Cc2ccc3c(c2)c(=O)c(C(N)=O)cn3-c2ccc(F)cc2)CC1 [Compound 74, 1-(4-fluorophenyl)-6-((4-methoxypiperidin-1-yl)methyl)-4-oxo-1,4-dihydroquinoline-3-carboxamide]	1880	1.23
CS(=O)(=O)N1CCN(Cc2ccc3c(c2)c(=O)c(C(N)=O)cn3-c2ccc(F)cc2)CC1 [Compound 83, 1-(4-fluorophenyl)-6-((4-(methylsulfonyl)piperazin-1-yl)methyl)-4-oxo-1,4-dihydroquinoline-3-carboxamide]	694	1.47
NC(=O)c1cn(-c2ccc(F)cc2)c2ccc(CN3CCN(CC(F)(F)F)CC3)cc2c1=O [Compound 81, 1-(4-fluorophenyl)-4-oxo-6-((4-(2,2,2-trifluoroethyl)piperazin-1-yl)methyl)-1,4-dihydroquinoline-3-carboxamide]	753	1.19
NC(=O)c1cn(-c2ccc(F)cc2)c2ccc(CN3CCCOCC3)cc2c1=O [Compound 72, 6-((1,4-oxazepan-4-yl)methyl)-1-(4-fluorophenyl)-4-oxo-1,4-dihydroquinoline-3-carboxamide]	> 10000	29.6

Next, values leading:

IC50 [nM]	remaining activity at 30 µM [%]	Compound
167	2.57	CCN(Cc1cccnc1)c1ccc2c(c1)c(=O)c(C(N)=O)cn2-c1ccc(F)cc1 [Compound 42, 6-(ethyl(pyridin-3-ylmethyl)amino)-1-(4-fluorophenyl)-4-oxo-1,4-dihydroquinoline-3-carboxamide]
421	2.18	Cc1cc(OCc2ccc3c(c2)c(=O)c(C(N)=O)cn3-c2ccc(F)cc2)ccn1 [Compound 33, 1-(4-fluorophenyl)-6-(((2-methylpyridin-4-yl)oxy)methyl)-4-oxo-1,4-dihydroquinoline-3-carboxamide]
227 ± 55	1.52 ± 0.26	Cc1ncc(CCc2ccc3c(c2)c(=O)c(C(N)=O)cn3-c2ccc(F)cc2)cn1 [Compound 1, 1-(4-Fluorophenyl)-6-(2-(2-methylpyrimidin-5-yl)ethyl)-4-oxo-1,4-dihydroquinoline-3-carboxamide]
328 ± 64	1.31 ± 0.04	CC1CN(Cc2ccc3c(c2)c(=O)c(C(N)=O)cn3-c2ccc(F)cc2)CCO1 (stereo not shown) [Compound 79, 1-(4-fluorophenyl)-6-((2-methylmorpholino)methyl)-4-oxo-1,4-dihydroquinoline-3-carboxamide]
202 ± 14	2.39 ± 0.13	CN(Cc1cccnc1)c1ccc2c(c1)c(=O)c(C(N)=O)cn2-c1ccc(F)cc1 [Compound 12, 1-(4-fluorophenyl)-6-(methyl(pyridin-3-ylmethyl)amino)-4-oxo-1,4-dihydroquinoline-3-carboxamide]
544	0.41	Cn1cc(-c2ccc3c(c2)c(=O)c(C(N)=O)cn3-c2ccc(F)cc2)cn1 [Compound 61, 1-(4-fluorophenyl)-6-(1-methyl-1H-pyrazol-4-yl)-4-oxo-1,4-dihydroquinoline-3-carboxamide]
444	1.91	NC(=O)c1cn(-c2ccc(F)cc2)c2ccc(NCCc3ccncc3)cc2c1=O [Compound 26, 1-(4-fluorophenyl)-4-oxo-6-((2-(pyridin-4-yl)ethyl)amino)-1,4-dihydroquinoline-3-carboxamide]
224	1.02	CN(Cc1ccncc1)c1ccc2c(c1)c(=O)c(C(N)=O)cn2-c1ccc(F)cc1 [Compound 19, 1-(4-fluorophenyl)-6-(methyl(pyridin-4-ylmethyl)amino)-4-oxo-1,4-dihydroquinoline-3-carboxamide]
492 ± 97	1.88 ± 0.38	NC(=O)c1cn(-c2ccc(F)cc2)c2ccc(CCc3ccncc3)cc2c1=O [Compound 9, 1-(4-fluorophenyl)-4-oxo-6-(2-(pyridin-4-yl)ethyl)-1,4-dihydroquinoline-3-carboxamide]
422 ± 94	1.09 ± 0.16	Cc1cc(COc2ccc3c(c2)c(=O)c(C(N)=O)cn3-c2ccc(F)cc2)ccn1 [Compound 24, 1-(4-fluorophenyl)-6-((2-methylpyridin-4-yl)methoxy)-4-oxo-1,4-dihydroquinoline-3-carboxamide]
164	2.06	NC(=O)c1cn(-c2ccc(F)cc2)c2ccc(CN3CCCSCC3)cc2c1=O [Compound 71, 6-((1,4-thiazepan-4-yl)methyl)-1-(4-fluorophenyl)-4-oxo-1,4-dihydroquinoline-3-carboxamide]
